Source: patent publication US10988477B2 (Merck Patent GmbH, priority 2018, dated 2021)

Experiments:
[1] = target: intracellular GCN2 (phosphorylation of the GCN2 substrate eIF2α) (Homo sapiens, UniProt Q9P2K8); experiment: GCN2 cellular inhibition assay (AlphaScreen SureFire P-eIF2α Ser51, borrelidin-treated U2OS cells); type: cell-based; conditions: compounds of Formula IV; biomarker assay, phosphorylated eIF2α Ser51 in borrelidin-treated U2OS cells
Outline: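 U2OS cells adhered overnight, then treated with compounds (4-fold serial dilutions from 40 μM final) plus borrelidin 10 μM final for 1 h at 37 °C. Lysate eIF2α Ser51 phosphorylation measured by AlphaScreen SureFire. Percent inhibition calculated relative to borrelidin-only wells.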

GCN2 kinase = GCN2 kinase (Homo sapiens, UniProt Q9P2K8); experiment: GCN2 enzyme inhibition assay (Transcreener ADP2 fluorescence polarization); type: biochemical; conditions: Enzyme activity for compounds of Formula IV; Ki(app), 280 μM ATP, 25° C.
Outline: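 Human GCN2 (4 nM) preincubated 10 min with compound (0–8 μM) and 200 μM (RS)7 peptide in Tris-HCl pH 7.5, NaCl, MgCl2, DTT. Reaction started with 280 μM ATP, run 1 h at 25 °C. ADP detected by Transcreener fluorescence polarization. IC50 and Ki(app) fitted by tight-binding algorithm.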

Sequence of intracellular GCN2 (phosphorylation of the GCN2 substrate eIF2α) (Q9P2K8 whole entry): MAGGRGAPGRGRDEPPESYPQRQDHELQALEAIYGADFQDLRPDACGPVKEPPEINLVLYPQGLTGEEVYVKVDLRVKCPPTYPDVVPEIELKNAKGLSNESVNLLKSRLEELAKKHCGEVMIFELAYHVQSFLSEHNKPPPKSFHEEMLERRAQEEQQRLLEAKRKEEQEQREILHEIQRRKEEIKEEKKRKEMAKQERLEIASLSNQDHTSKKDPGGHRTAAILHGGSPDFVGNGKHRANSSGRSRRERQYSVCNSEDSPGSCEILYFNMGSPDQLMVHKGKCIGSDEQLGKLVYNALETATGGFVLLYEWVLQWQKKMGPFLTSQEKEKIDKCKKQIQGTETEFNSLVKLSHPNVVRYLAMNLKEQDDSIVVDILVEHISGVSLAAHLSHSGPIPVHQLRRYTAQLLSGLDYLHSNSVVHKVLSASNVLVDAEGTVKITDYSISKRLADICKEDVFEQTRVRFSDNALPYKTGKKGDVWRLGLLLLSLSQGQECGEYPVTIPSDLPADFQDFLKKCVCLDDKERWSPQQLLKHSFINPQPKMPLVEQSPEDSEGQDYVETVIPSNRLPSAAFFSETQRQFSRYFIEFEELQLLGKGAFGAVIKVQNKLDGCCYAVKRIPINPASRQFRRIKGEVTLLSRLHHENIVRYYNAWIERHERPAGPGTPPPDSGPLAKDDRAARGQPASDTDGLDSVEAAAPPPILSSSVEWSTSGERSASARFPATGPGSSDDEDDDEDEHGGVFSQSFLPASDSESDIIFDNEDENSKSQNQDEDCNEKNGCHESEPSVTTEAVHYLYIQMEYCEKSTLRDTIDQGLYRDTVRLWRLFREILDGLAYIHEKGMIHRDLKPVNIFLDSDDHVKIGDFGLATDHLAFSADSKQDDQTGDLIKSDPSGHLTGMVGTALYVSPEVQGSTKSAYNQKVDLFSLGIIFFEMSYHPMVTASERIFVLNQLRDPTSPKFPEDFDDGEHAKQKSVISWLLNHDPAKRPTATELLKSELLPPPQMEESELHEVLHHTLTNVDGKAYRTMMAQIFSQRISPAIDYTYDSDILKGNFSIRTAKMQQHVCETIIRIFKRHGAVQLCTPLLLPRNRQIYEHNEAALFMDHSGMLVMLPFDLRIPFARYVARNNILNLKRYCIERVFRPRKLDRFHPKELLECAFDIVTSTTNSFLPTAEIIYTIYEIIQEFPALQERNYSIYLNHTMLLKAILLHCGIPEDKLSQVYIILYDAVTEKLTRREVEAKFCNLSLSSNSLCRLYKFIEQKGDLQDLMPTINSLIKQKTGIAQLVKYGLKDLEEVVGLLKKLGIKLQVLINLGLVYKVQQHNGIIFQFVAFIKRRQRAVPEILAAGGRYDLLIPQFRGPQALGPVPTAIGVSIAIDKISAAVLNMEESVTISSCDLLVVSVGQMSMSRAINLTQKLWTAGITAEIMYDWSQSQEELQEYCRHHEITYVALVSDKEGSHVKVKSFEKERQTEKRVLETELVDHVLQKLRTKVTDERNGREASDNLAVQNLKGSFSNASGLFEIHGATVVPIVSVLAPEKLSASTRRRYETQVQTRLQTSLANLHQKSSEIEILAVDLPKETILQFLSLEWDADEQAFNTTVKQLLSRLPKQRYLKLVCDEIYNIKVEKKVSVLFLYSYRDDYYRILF
Sequence of GCN2 kinase (Q9P2K8 whole entry): as above

IC50 [1] [nM]	Ki (GCN2 kinase) [nM]	Compound
500 to 5000	10 to 100	CCN1CCN(c2ccnc(-c3cnc4cnc(Br)cn34)n2)[C@@H](C)[C@H]1c1cn[nH]c1 (single isomer, unassigned) [IV-401, Cis-6-Bromo-3-(4-(4-ethyl-2-methyl-3-(1H-pyrazol-4-yl)piperazin-1-yl)pyrimidin-2-yl)imidazo[1,2-a]pyrazine]
< 500	< 10	CCN1CCN(c2ccnc(-c3cnc4cnc(Br)cn34)n2)[C@@H](C)[C@H]1c1cn[nH]c1 (single isomer, unassigned) [IV-402, Cis-6-Bromo-3-(4-(4-ethyl-2-methyl-3-(1H-pyrazol-4-yl)piperazin-1-yl)pyrimidin-2-yl)imidazo[1,2-a]pyrazine]
< 500	< 10	CC1CN(c2nccc(-c3cnc4cnc(Br)cn34)n2)C(C)C(c2cn[nH]c2)N1 (single isomer, unassigned) [IV-403, 6-Bromo-3-(2-(2,5-dimethyl-3-(1H-pyrazol-4-yl)piperazin-1-yl)pyrimidin-4-yl)imidazo[1,2-a]pyrazine]
500 to 5000	100 to 1000	CC1CN(c2nccc(-c3cnc4cnc(Br)cn34)n2)C(C)C(c2cn[nH]c2)N1 (single isomer, unassigned) [IV-404, 6-Bromo-3-(2-(2,5-dimethyl-3-(1H-pyrazol-4-yl)piperazin-1-yl)pyrimidin-4-yl)imidazo[1,2-a]pyrazine]
< 500	< 10	CC1CN(c2ccnc(-c3cnc4cnc(C(F)(F)F)cn34)n2)CC(c2c[nH]cn2)O1 (single isomer, unassigned) [IV-405, 2-(1H-Imidazol-4-yl)-6-methyl-4-(2-(6-(trifluoromethyl)imidazo[1,2-a]pyrazin-3-yl)pyrimidin-4-yl)morpholine]
> 5000	10 to 100	CC1CN(c2ccnc(-c3cnc4cnc(C(F)(F)F)cn34)n2)CC(c2c[nH]cn2)O1 (single isomer, unassigned) [IV-406, 2-(1H-Imidazol-4-yl)-6-methyl-4-(2-(6-(trifluoromethyl)imidazo[1,2-a]pyrazin-3-yl)pyrimidin-4-yl)morpholine]
500 to 5000	< 10	CC1CN(c2nccc(-c3cnc4cnc(Cl)cn34)n2)C(C)C(c2cn[nH]c2)N1 (single isomer, unassigned) [IV-407, 6-Chloro-3-(2-(2,5-dimethyl-3-(1H-pyrazol-4-yl)piperazin-1-yl)pyrimidin-4-yl)imidazo[1,2-a]pyrazine]
> 5000	100 to 1000	CC1CN(c2nccc(-c3cnc4cnc(Cl)cn34)n2)C(C)C(c2cn[nH]c2)N1 (single isomer, unassigned) [IV-408, 6-Chloro-3-(2-(2,5-dimethyl-3-(1H-pyrazol-4-yl)piperazin-1-yl)pyrimidin-4-yl)imidazo[1,2-a]pyrazine]
500 to 5000	10 to 100	CC1C(c2cn[nH]c2)NCCN1c1ccnc(-c2cnc3cnc(Br)cn23)n1 (single isomer, unassigned) [IV-413, 6-Bromo-3-(4-(2-methyl-3-(1H-pyrazol-4-yl)piperazin-1-yl)pyrimidin-2-yl)imidazo[1,2-a]pyrazine]
< 500	< 10	CC1C(c2cn[nH]c2)NCCN1c1ccnc(-c2cnc3cnc(Br)cn23)n1 (single isomer, unassigned) [IV-414, 6-Bromo-3-(4-(2-methyl-3-(1H-pyrazol-4-yl)piperazin-1-yl)pyrimidin-2-yl)imidazo[1,2-a]pyrazine]
500 to 5000	100 to 1000	CC1C(c2cn[nH]c2)CCCN1c1ccnc(-c2cnc3cnc(C(F)(F)F)cn23)n1 (single isomer, unassigned) [IV-419, 3-(4-(2-Methyl-3-(1H-pyrazol-4-yl)piperidin-1-yl)pyrimidin-2-yl)-6-(trifluoromethyl)imidazo[1,2-a]pyrazine]
< 500	< 10	CC1C(c2cn[nH]c2)CCCN1c1ccnc(-c2cnc3cnc(C(F)(F)F)cn23)n1 (single isomer, unassigned) [IV-420, 3-(4-(2-Methyl-3-(1H-pyrazol-4-yl)piperidin-1-yl)pyrimidin-2-yl)-6-(trifluoromethyl)imidazo[1,2-a]pyrazine]
500 to 5000	100 to 1000	CC1CN(c2ccnc(-c3cnc4cnc(C(F)(F)F)cn34)n2)C(C)C(c2cn[nH]c2)O1 (single isomer, unassigned) [IV-450, 3,6-Dimethyl-2-(1H-pyrazol-4-yl)-4-(2-(6-(trifluoromethyl)imidazo[1,2-a]pyrazin-3-yl)pyrimidin-4-yl)morpholine]
< 500	< 10	CC1CN(c2ccnc(-c3cnc4cnc(C(F)(F)F)cn34)n2)C(C)C(c2cn[nH]c2)O1 (single isomer, unassigned) [IV-451, 3,6-Dimethyl-2-(1H-pyrazol-4-yl)-4-(2-(6-(trifluoromethyl)imidazo[1,2-a]pyrazin-3-yl)pyrimidin-4-yl)morpholine]
> 5000	100 to 1000	Cc1[nH]ncc1C1CN(c2ccnc(-c3cnc4cnc(C(F)(F)F)cn34)n2)CC(C)N1 (single isomer, unassigned) [IV-458, 3-(4-(3-Methyl-5-(5-methyl-1H-pyrazol-4-yl)piperazin-1-yl)pyrimidin-2-yl)-6-(trifluoromethyl)imidazo[1,2-a]pyrazine]
500 to 5000	10 to 100	Cc1[nH]ncc1C1CN(c2ccnc(-c3cnc4cnc(C(F)(F)F)cn34)n2)CC(C)N1 (single isomer, unassigned) [IV-459, 3-(4-(3-Methyl-5-(5-methyl-1H-pyrazol-4-yl)piperazin-1-yl)pyrimidin-2-yl)-6-(trifluoromethyl)imidazo[1,2-a]pyrazine]
500 to 5000	100 to 1000	CC1CN(c2ccnc(-c3cnc4cnc(C(F)(F)F)cn34)n2)CC(c2cn[nH]c2)N1 (single isomer, unassigned) [IV-460, 3-(4-(3-Methyl-5-(1H-pyrazol-4-yl)piperazin-1-yl)pyrimidin-2-yl)-6-(trifluoromethyl)imidazo[1,2-a]pyrazine]
500 to 5000	10 to 100	CC1CN(c2ccnc(-c3cnc4cnc(C(F)(F)F)cn34)n2)CC(c2cn[nH]c2)N1 (single isomer, unassigned) [IV-461, 3-(4-(3-Methyl-5-(1H-pyrazol-4-yl)piperazin-1-yl)pyrimidin-2-yl)-6-(trifluoromethyl)imidazo[1,2-a]pyrazine]
> 5000	100 to 1000	Cc1[nH]ncc1C1CN(c2ccnc(-c3cnc4cnc(C(F)F)cn34)n2)CC(C)N1 (single isomer, unassigned) [IV-462, 6-(Difluoromethyl)-3-(4-(3-methyl-5-(5-methyl-1H-pyrazol-4-yl)piperazin-1-yl)pyrimidin-2-yl)imidazo[1,2-a]pyrazine]
> 5000	100 to 1000	Cc1[nH]ncc1C1CN(c2ccnc(-c3cnc4cnc(C(F)F)cn34)n2)CC(C)N1 (single isomer, unassigned) [IV-463, 6-(Difluoromethyl)-3-(4-(3-methyl-5-(5-methyl-1H-pyrazol-4-yl)piperazin-1-yl)pyrimidin-2-yl)imidazo[1,2-a]pyrazine]
500 to 5000	10 to 100	Cc1n[nH]c(C)c1C1CN(c2ccnc(-c3cnc4cnc(C(F)(F)F)cn34)n2)CC(C)N1 (single isomer, unassigned) [IV-465, 3-(4-(3-(3,5-Dimethyl-1H-pyrazol-4-yl)-5-methylpiperazin-1-yl)pyrimidin-2-yl)-6-(trifluoromethyl)imidazo[1,2-a]pyrazine]
> 5000	100 to 1000	Cc1n[nH]c(C)c1C1CN(c2ccnc(-c3cnc4cnc(C(F)(F)F)cn34)n2)CC(C)N1 (single isomer, unassigned) [IV-467, 3-(4-(3-(3,5-Dimethyl-1H-pyrazol-4-yl)-5-methylpiperazin-1-yl)pyrimidin-2-yl)-6-(trifluoromethyl)imidazo[1,2-a]pyrazine]
500 to 5000	10 to 100	Cc1n[nH]cc1C1CCCN(c2ccnc(-c3cnc4cnc(C(F)F)cn34)n2)C1 (single isomer, unassigned) [IV-468, 6-(Difluoromethyl)-3-(4-(3-(3-methyl-1H-pyrazol-4-yl)piperidin-1-yl)pyrimidin-2-yl)imidazo[1,2-a]pyrazine]
> 5000	10 to 100	Cc1n[nH]cc1C1CCCN(c2ccnc(-c3cnc4cnc(C(F)F)cn34)n2)C1 (single isomer, unassigned) [IV-469, 6-(Difluoromethyl)-3-(4-(3-(3-methyl-1H-pyrazol-4-yl)piperidin-1-yl)pyrimidin-2-yl)imidazo[1,2-a]pyrazine]
> 5000	< 10	Cc1[nH]ncc1C1CCCN(c2ccnc(-c3cnc4cnc(C(F)(F)F)cn34)n2)C1 (single isomer, unassigned) [IV-470, 3-(4-(3-(5-Methyl-1H-pyrazol-4-yl)piperidin-1-yl)pyrimidin-2-yl)-6-(trifluoromethyl)imidazo[1,2-a]pyrazine]
> 5000	10 to 100	Cc1[nH]ncc1C1CCCN(c2ccnc(-c3cnc4cnc(C(F)(F)F)cn34)n2)C1 (single isomer, unassigned) [IV-471, 3-(4-(3-(5-Methyl-1H-pyrazol-4-yl)piperidin-1-yl)pyrimidin-2-yl)-6-(trifluoromethyl)imidazo[1,2-a]pyrazine]
< 500	< 10	CC1CN(c2ccnc(-c3cnc4cnc(C(F)(F)F)cn34)n2)CC(c2cn[nH]c2C(F)(F)F)N1 (single isomer, unassigned) [IV-474, 3-(4-(3-Methyl-5-(5-(trifluoromethyl)-1H-pyrazol-4-yl)piperazin-1-yl)pyrimidin-2-yl)-6-(trifluoromethyl)imidazo[1,2-a]pyrazine]
